Source: US20090298799A1, “Methods of Treating Osteoporosis and Secondary Hyperparathyroidism Using 20-Methyl, Gemini Vitamin D3 Compounds” (BioXell S.p.A., priority 2005, published 2009)

Key:
[1] = Determination of maximum tolerated dose (MTD) without hypercalcemia; set-up: species or system mice; conditions: female, C57BL/6, mouse, in vivo, po; p.o. daily for four days; highest dose without hypercalcemia (serum calcium>10.7 mg/dl)
Description: The maximum tolerated dose of the vitamin D3 compounds of the invention were determined in eight week-old female C57BL/6 mice (3 mice/group) dosed orally (0.1 ml/mouse) with various concentrations of Vitamin D3 analogs daily for four days. Analogs were formulated in miglyol for a final concentration of 10, 30, 100 and 300 μg/kg when given at 0.1 ml/mouse p.o. daily. Blood for serum calcium assay was drawn by tail bleed on day five, the final day of the study. Serum calcium levels were determined using a colormetric assay (Sigma Diagnostics, procedure no. 597). The highest dose of analog tolerated without inducing hypercalcemia (serum calcium>10.7 mg/dl) was taken as the maximum tolerated does (MTD).

OVX rats = assay: Osteoporosis, early curative treatment in 3 month old OVX rats; conditions: for Tibia (μCT) increased over OVX controls / vertebrae (L5) increase over OVX control rats: 5/7 days for 3 weeks; for efficacy compared with calcitriol: 3 month old OVX rats
Description: Three-month old Sprague Dawley female rats were purchased from CERJ or Charles River, France. Rats underwent bilateral ovariectomy (OVX) or sham-operation (Sham) under anesthesia with intraperitoneal ketamine hydrochloride (50 mg/kg BW). The success of ovariectomy was evidenced at necropsy by weighing the uterus and visualizing the absence of ovarian tissue.
Throughout the whole experiment, rats were housed at 22±2° C. with a 12 h:12 h light-dark cycle. The animals were pair-fed a standard diet (Safe, 0.6% P, 0.8% Ca) and received Eau de Volvic ad libitum.
The treatment started 3 weeks post-ovariectomy. Compounds were firstly dissolved in ethanol (1 mg/ml). The other dilutions were done in Miglyol 812N. Compounds or vehicle (sham, OVX control rats) were given by daily oral gavage (5 ml/kg), 5/7 days for 3 weeks. […] Before the beginning of treatment, groups of sham and OVX rats were sacrificed to serve as basal controls. Ten and three days before sacrifice, rats were given subcutaneous injections of calcein (10 ml/kg, Sigma) to determine dynamic changes in bone tissue. The day before sacrifice, the rats were fasted and housed in metabolic cages to collect overnight urines.
At necropsy, right long bones were removed and fixed in 70% ethanol for further μCT (tibia and femur) and histomorphometry (tibia) analysis. The whole left legs were collected for pQCT analysis. The fourth and fifth lumbar vertebrae were dissected for DXA analysis. Excised tibias were scanned by a μCT machine (Scanco Medical) with software version 3.1 for a 2D-evaluation. The scans started at a distance of 1 mm of the reference line in the proximal tibia metaphysis. Five 0.5 mm-spaced slices were analyzed. The slice thickness was 20-30 μm. Bone volume (BV/TV) and trabeculae number (TbN) and thickness (TbTh) were assessed. Excised tibias were scanned by a pQCT machine (Stratec XCT Research SA+) with software version 5.4 to assess trabecular and cortical Bone Mineral Density (BMD) of proximal tibia metaphysis. For analysis of trabecular bone, the distance between the reference line and the first measurement line was 3 mm. Three other lines separated by 1 mm were analyzed. The cortical BMD was analyzed at 20 mm from the reference line. The voxel size was 0.10 mm. The peel mode used was 20/50. The BMD of excised fourth (L4) and fifth (L5) lumbar vertebrae were scanned by a DXA machine (Hologic QDR 4500) with software optimized for small animal studies. The regional high-resolution software selected a thin X-ray aperture. The large region was 68-71 and the narrow one was 35-21 to assess the body of the vertebrae of L4 and L5.
Left tibia from each rat was removed and dissected free of adjacent tissues. The bones were fixed in 70% ethanol, dehydrated in graded concentrations of ethanol, defatted in xylene, then embedded without decalcification in methyl methacrylate. Five μm-thick sections were made and stained with toluidine blue and cyanin solochrome and used for structural and cellular parameters evaluation. Ten μm-thick sections remained unstained for florescence microscopy observations. Structural and dynamic parameters were measured in the secondary spongiosa of the proximal tibial metaphysis situated about 1 mm distal from the growth plate-epiphyseal junction. Structural parameters, i.e. trabecular bone volume BV/TV (%), trabecular thickness (μm), connections and number, as well as cellular parameters (osteoblast, osteoid surfaces and osteoclast number), and dynamic parameters (mineralizing surface, mineral apposition rate, bone formation rate) were evaluated.
Osteocalcin (IRMA kit, Immutopics), DPyr (Metra DPD EIA kit), CTx (Ratlaps ELISA, Nordic, Bioscience Diagnostics) Ca, P, creatinin (Cobas Mira analyser) and rat PTH (Immutopics) were assessed in serum or urine material according to the manufacturer's instructions.

renin = assay: Renin inhibition in vitro
nephrectomized rats = assay: Secondary hyperparathyroidism, 5/6 nephrectomized (uremic) rats; type: in vivo, Sprague Dawley rats; conditions: for efficacy in PTH suppression and bone porosity / results compared to Zemplar in PTH suppression, CaxP, bone porosity and aortic calcification / safety profile compared to Zemplar: rat, in vivo; for bone protection / efficacy: rats with moderate renal failure
Description: Three month-old Sprague Dawley male rats (220-250 g BW) were purchased from CERJ, France, Rats were ⅚ nephrectomized (right kidney and ⅔ left kidney removed by surgery) or sham-operated (controls) by the supplier according to Prostrakan'procedures. The success of nephrectomy was evidenced at necropsy by visualizing the kidney tissue and measuring serum creatinin and urea. There were 10-12 rats in each group. […] Twenty days after operation, phosphate (Na2HPO4) was added to Eau de Volvic (6 g/l). Experimental procedures were approved by the Animal Ethics Committee of Prostrakan and by DDSV of Seine St Denis, France. The treatment started 82 days post-nephrectomy. Compounds were firstly dissolved in ethanol (1 mg/ml). The other dilutions were done in Miglyol 812N. […] Before the beginning of treatment, groups of control and nephrectomized rats were sacrificed to served as basal controls.
The whole left legs were collected for pQCT analysis. […] Five 0.5 mm-spaced slices were analyzed. The slide thickness was 20-30 μm. Bone volume (BV/TV) and trabecular number (TbN) and thickness (TbTh) were assessed. […] Three other lines separated by 1 mm were analyzed. […] The voxel size was 0.10 mm. The peel mode used was 20/50.
Ten μm-thick sections remained unstained for fluorescence microscopy observations.
To assess the calcification, aortas (6 cm-segment starting at arch), hearts and remaining kidney tissues were removed and fixed for histology analysis. Aortas segments were fixed in 3.7% formaldehyde and embedded in paraffin. Five μm cross sections were made and stained with a Von Kossa method for the calcification evaluation. The following grading of the calcification was used: moderate when less 50% of the aortic perimeter was calcified; severe when 100% of the aortic perimeter was calcified.
Data were expressed as mean±sem. […] The ANOVA test was used for all groups.

IFN-γ production = IFN-γ production by allogeneic T cell activation in the mixed leukocyte response (MLR); type: cell-based; conditions: 120 h; allogeneic PBMC from 2 donors, 5 days, ELISA
Description: Immature dendritic cells (DC) were prepared as described in Romani, N. et al., J. Immunol. Meth. 196.137. IFN-γ production by allogeneic T cell activation in the mixed leukocyte response (MLR) was determined as described in Penna, G., et al., J. Immunol., 164: 2405-2411 (2000).
Briefly, peripheral blood mononuclear cells (PBMC) were separated from buffy coats by Ficoll gradient and the same number (3×105) of allogeneic PBMC from 2 different donors were co-cultured in 96-well flat-bottom plates. After 5 days, IFN-γ production in the MLR assay was measured by ELISA and the results expressed as amount (nM) of test compound required to induce 50% inhibition of IFN-γ production (IC50) (Table 1).

SMILES	MTD at 4 days [1] [µg/kg]	efficacy compared with calcitriol (OVX rats)	inhibition of renin in vitro compared with calcitriol (renin)	results compared to Zemplar in the renin inhibition in vitro experiments (renin)	peritrabecular fibrosis (tibia) (nephrectomized rats; 0.1 μg/kg)	efficacy in PTH suppression and bone porosity (nephrectomized rats)	results compared to Zemplar in PTH suppression, CaxP, bone porosity and aortic calcification (nephrectomized rats)	safety profile compared to Zemplar (nephrectomized rats)	bone protection (nephrectomized rats)	efficacy (nephrectomized rats)	other results
C=C1/C(=C\C=C2/CCC[C@@]3(C)C2CCC3[C@](C)(CC#CC(O)(C(F)(F)F)C(F)(F)F)CCCC(C)(C)O)CC(O)C[C@@H]1O (stereo partly drawn) [Compound 1, (20S)-1,25-Dihydroxy-20-(5,5,5-trifluoro-4-hydroxy-4-trifluoromethyl-pent-2-ynyl)-cholecalciferol]	0.3	greater efficacy than calcitriol									Tibia (μCT) increased over OVX controls (OVX rats; 0.3 μg/kg oral): 90%; vertebrae (L5) increase over OVX control rats (OVX rats; 0.3 μg/kg oral): 8%; efficacy vs. calcitrol on travecular bone volume (OVX rats; 0.3 μg/kg, FIG. 4): higher; Tibia (μCT) increased over OVX controls (OVX rats; 1 μg/kg oral): 114%; vertebrae (L5) increase over OVX control rats (OVX rats; 1 μg/kg oral): 12%
C=C1/C(=C\C=C2/CCC[C@@]3(C)C2CCC3[C@](C)(C/C=C\C(O)(C(F)(F)F)C(F)(F)F)CCCC(C)(C)O)CC(O)C[C@@H]1O (stereo partly drawn) [Compound 2, (20S)-1,25-Dihydroxy-20-((2Z)-5,5,5-trifluoro-4-hydroxy-4-trifluoromethyl-pent-2-enyl)cholecalciferol]	0.3		stronger inhibitition of renin in vitro over calcitriol	greater or equal positive results compared to Zemplar	one of ten rats	demonstrated efficacy	greater or equal positive results compared to Zemplar	equal or more beneficial results	provided bone protection on the tibia and vertebrae	good efficacy	osteoid thickening (tibia) (nephrectomized rats; 1 μg/kg): normal levels; rats with mild porous levels of femur cortical porosity (nephrectomized rats; 1 μg/kg): four of ten rats; femur cortical porosity (nephrectomized rats; 3 μg/kg): nine rats demonstrated normal levels; osteoid thickening (tibia) (nephrectomized rats; 3 μg/kg): normal levels; peritrabecular fibrosis (tibia) (nephrectomized rats; 3 μg/kg): normal levels
C=C1/C(=C\C=C2/CCC[C@@]3(C)C2CCC3[C@](C)(C/C=C/C(O)(C(F)(F)F)C(F)(F)F)CCCC(C)(C)O)CC(O)C[C@@H]1O (stereo partly drawn) [Compound 3, (20S)-1,25-Dihydroxy-20-[(2E)-5,5,5-trifluoro-4-hydroxy-4-trifluoromethyl-pent-2-enyl]-cholecalciferol]		greater efficacy than calcitriol									IC50 (IFN-γ production): 0.044 nM
C=C1/C(=C\C=C2/CCC[C@@]3(C)C2CCC3[C@@](C)(CC#CC(O)(C(F)(F)F)C(F)(F)F)CCCC(C)(C)O)CC(O)C[C@@H]1O (stereo partly drawn) [Compound 4, (20R)-1,25-Dihydroxy-20-(5,5,5-trifluoro-4-hydroxy-4-trifluoromethyl-pent-2-ynyl)-cholecalciferol]			stronger inhibitition of renin in vitro over calcitriol	greater or equal positive results compared to Zemplar	normal levels	demonstrated efficacy	greater or equal positive results compared to Zemplar	equal or more beneficial results	provided bone protection on the tibia and vertebrae	good efficacy	osteoid thickening (tibia) (nephrectomized rats; 0.03 μg): normal levels; peritrabecular fibrosis (tibia) (nephrectomized rats; 0.03 μg/kg): one of nine rats; rats with mild porous levels of femur cortical porosity (nephrectomized rats; 0.03 μg/kg): four of nine rats; osteoid thickening (tibia) (nephrectomized rats; 0.1 μg/kg): one of nine rats; rats with mild porous levels of femur cortical porosity (nephrectomized rats; 0.1 μg/kg): one of nine rats
C=C1/C(=C\C=C2/CCC[C@@]3(C)C2CCC3[C@@](C)(C/C=C/C(O)(C(F)(F)F)C(F)(F)F)CCCC(C)(C)O)CC(O)C[C@@H]1O (stereo partly drawn) [Compound 5, (20R)-1,25-Dihydroxy-20-[(2E)-5,5,5-trifluoro-4-hydroxy-4-trifluoromethyl-pent-2-enyl]-cholecalciferol]	0.1										
C=C1/C(=C\C=C2/CCC[C@@]3(C)C2CCC3[C@](C)(CC#CC(O)(C(F)(F)F)C(F)(F)F)CCCC(C)(C)O)CC(O)C[C@@H]1F (stereo partly drawn) [Compound 6, (20S)-1α-Fluoro-25-hydroxy-20-(5,5,5-trifluoro-4-hydroxy-4-trifluoromethyl-pent-2-ynyl)-cholecalciferol]	100										
